From patent publication US20250237650A1 (priority 2021, published 2025)

Key:
[1] = system: full-length trimeric Alpha, Beta, and Delta spikes; format: binding, SARS-CoV-2
[2] = system: WT, Alpha, Beta, Delta, and Omicron BA.1 spike proteins; format: binding, SARS-CoV-2

Row | Substance | binding affinity to variant spikes relative to WT spike [1] | binding affinities to VOC spikes (in words) [2]
1 | heparin [HEP15, reference compound] | comparable binding affinity to WT spike | 
2 | heparin [reference compound] |  | an increase in affinity between HEP and Omicron spike over Delta and other VOC spikes
3 | ACE2 |  | within nanomolar range
